How the values were obtained:
[1] = test system: chick dorsal root ganglia; assay: Neurite outgrowth in chick dorsal root ganglion cultures; format: cell-based; conditions: for EC50: Gallus gallus, chick DRG explants, 48 h after drug treatment, read-out: ED50, Neurite Outgrowth in DRG cultures
Procedure: In the present work explants of chick dorsal root ganglia have been used, which are easier to employ in studies of nerve outgrowth.
Chick Dorsal Root Ganglion Cultures and Neurite Outgrowth
Dorsal root ganglia were dissected from chick embryos of ten day gestation. Whole ganglion explants were cultured on thin layer Matrigel-coated 12 well plates with Liebovitz L15 plus high glucose media supplemented with 2 mM glutamine and 10% fetal calf serum, and also containing 10 μM cytosine β-D arabinofuranoside (Ara C) at 37° C. in an environment containing 5% CO2. Twenty-four hours later, the DRGs were treated with various concentrations of nerve growth factor, immunophilin ligands or combinations of NFG plus drugs. Forty-eight hours after drug treatment, the ganglia were visualized under phase contrast or Hoffman Modulation contrast with a Zeiss Axiovert inverted microscope. Photomicrographs of the explants were made, and neurite outgrowth was quantitated. Neurites longer than the DRG diameter were counted as positive, with total number of neurites quantitated per each experimental condition. Three to four DRGs are cultured per well, and each treatment was performed in duplicate. Data from 6-10 different concentrations were used to generate dose-response curves, from which ED50 values were calculated.

[2] = test system: dorsal root ganglion cells (DRGs); conditions: picomolar concentrations; sensory neurons; cited from earlier work
PC12 cells = conditions: picomolar concentrations; cited from earlier work
rat dorsal root ganglia = conditions: rat DRG explants, cited from earlier work
facial nerve injury = conditions: whole animal experiments; cited from earlier work
sciatic nerve lesions = conditions: whole animal experiments; cited from earlier work
[3] = test system: growth-associated protein-43 (GAP43); conditions: cited from earlier work

Structure (SMILES)	EC50 [1] [nM]	also measured
CC(C)Oc1cccc(C(=O)C(=O)N2CCCC[C@H]2C(=O)OC(CCCc2ccccc2)CCCc2cccnc2)c1 (stereo partly shown) [Compound 25]	0.3	–
O=C(C(=O)N1CCCC[C@H]1C(=O)OCCCc1ccccc1)c1ccccc1 [Example 2]	10 to 20	–
COc1cc(C(=O)C(=O)N2CCCC[C@H]2C(=O)OCCCc2c[nH]c3ccccc23)cc(OC)c1OC [Example 15]	0.055	neurite outgrowth in cultured sensory neurons (photomicrograph) ([1]; 300 pM): stimulation of neurite outgrowth
COc1cc(C(=O)C(=O)N2CCCC[C@H]2C(=O)OC(CCCc2ccccc2)CCCc2ccccc2)cc(OC)c1OC [Compound 21]	0.61	dose-dependence of neurotrophic effects in neuronal cultures ([1]; FIG. 3, cultured sensory neurons): dose-dependent neurotrophic effects
COc1ccc(CCCCOC(=O)[C@@H]2CCCCN2C(=O)C(=O)c2cc(OC)c(OC)c(OC)c2)cc1 [Example 16]	0.03	–
COC(=O)C(=O)N1CCCC[C@H]1C(=O)OCc1ccccc1 [Example 7]	> 10000	–
COC(=O)C(=O)N1CCCC[C@H]1C(=O)OCCCC1CCCC1 [Example 10]	> 10000	–
COC(=O)C(=O)N1CCCC[C@H]1C(=O)OCCCC1CCCCC1 [Example 9]	> 10000	–
O=C(C(=O)N1CCCC[C@H]1C(=O)OCCCCC1CCCCC1)c1ccccc1 [Example 6]	10 to 20	–
COc1ccc(CCC(CCCc2ccccc2)OC(=O)[C@@H]2CCCCN2C(=O)C(=O)c2ccccc2)cc1 (stereo partly shown) [Compound 19]	10 to 20	–
O=C(C(=O)N1CCCC[C@H]1C(=O)OCCc1ccccc1)c1ccccc1 [Example 5]	25 to 100	–
CO[C@H]1C[C@@H]2CC[C@@H](C)[C@@](O)(O2)C(=O)C(=O)N2CCCC[C@H]2C(=O)O[C@H]([C@H](C)C[C@@H]2CC[C@@H](O)[C@H](OC)C2)CC(=O)[C@H](C)/C=C(\C)[C@@H](O)[C@@H](OC)C(=O)[C@H](C)C[C@H](C)/C=C/C=C/C=C/1C [rapamycin]	–	stimulation of neurite outgrowth [2]: stimulate neurite out growth in PC12 cells and sensory neurons; stimulation of neurite outgrowth (PC12 cells): stimulate neurite out growth in PC12 cells
O=C(C(=O)N1CCCC[C@H]1C(=O)OCc1ccccc1)c1ccccc1 [Example 1]	25 to 100	–
O=C(C(=O)N1CCCC[C@H]1C(=O)OC(CCCc1ccccc1)CCCc1ccccc1)c1ccccc1 [Compound 20]	0.0044	–
O=C(C(=O)N1CCCC[C@H]1C(=O)OCCCCc1ccccc1)c1ccccc1 [Example 4]	25 to 100	–
O=C(C(=O)N1CCCC[C@H]1C(=O)OC(CCCc1ccccc1)CCCc1cccnc1)c1ccccc1 (stereo partly shown) [Compound 17]	1 to 5	–
COc1ccc(CCCCOC(=O)[C@@H]2CCCCN2C(=O)C(=O)c2ccccc2)cc1 [Example 3]	0.5	–
COc1cc(C(=O)C(=O)N2CCCC[C@H]2C(=O)OC(CCCc2ccccc2)CCCc2ccccn2)cc(OC)c1OC (stereo partly shown) [Compound 23]	25	–
COc1cc(C(=O)C(=O)N2CCCC[C@H]2C(=O)OCCCCC2CCCCC2)cc(OC)c1OC [Example 12]	0.031	–
O=C(C(=O)N1CCCC[C@H]1C(=O)OC(CCCc1ccccc1)CCCc1ccccn1)c1ccccc1 (stereo partly shown) [Compound 18]	0.063	–
COc1cc(C(=O)C(=O)N2CCCC[C@H]2C(=O)OCCCCc2ccccc2)cc(OC)c1OC [Example 14]	1 to 5	–
COc1cc(C(=O)C(=O)N2CCCC[C@H]2C(=O)OCc2cccc(Oc3ccccc3)c2)cc(OC)c1OC [Example 13]	0.18	–
C=CC[C@@H]1/C=C(\C)C[C@H](C)C[C@H](OC)[C@H]2O[C@@](O)(C(=O)C(=O)N3CCCC[C@H]3C(=O)O[C@H](/C(C)=C/[C@@H]3CC[C@@H](O)[C@H](OC)C3)[C@H](C)[C@@H](O)CC1=O)[C@H](C)C[C@@H]2OC [FK506]	–	stimulation of neurite outgrowth [2]: stimulate neurite out growth in PC12 cells and sensory neurons; neurotrophic effects in the absence of NGF (rat dorsal root ganglia; no NGF): neurotrophic effects were observed; lowest concentration with significant augmentation in nerve outgrowth (rat dorsal root ganglia): 1 picomolar; nerve regeneration following facial nerve injury (facial nerve injury): stimulate nerve regeneration following facial nerve injury; functional recovery in animals with sciatic nerve lesions (sciatic nerve lesions): functional recovery in animals with sciatic nerve lesions; stimulation of neurite outgrowth (PC12 cells): stimulate neurite out growth in PC12 cells; phosphorylation of GAP43 [3]: augments the phosphorylation
COC(=O)C(=O)N1CCCC[C@H]1C(=O)OCCCCC1CCCCC1 [Example 8]	> 10000	–
COc1cc(C(=O)C(=O)N2CCCC[C@H]2C(=O)OC(CCCc2ccccc2)CCc2cccnc2)cc(OC)c1OC (stereo partly shown) [Compound 22]	0.95	neurite outgrowth in cultured sensory neurons (photomicrograph) ([1]; 1 nM): responding to trophic effects
O=C(C(=O)N1CCCC[C@H]1C(=O)OCc1ccccc1)c1ccco1 [Example 11]	1000	–
COc1ccc(CCCC(CCCc2ccccc2)OC(=O)[C@@H]2CCCCN2C(=O)C(=O)c2cc(OC)c(OC)c(OC)c2)cc1 (stereo partly shown) [Compound 24]	0.5	–

— patent US5801197A, “Rotamase enzyme activity inhibitors” (GPI Nil Holdings, Inc., priority 1996, dated 1998)
